Data as given in paper PMC7914367, “Dual-ligand supramolecular nanofibers inspired by the renin-angiotensin system for the targeting and synergistic therapy of myocardial infarction” (Theranostics, 2021).
Peptide text beside a SMILES is read from it. * marks the point of attachment. X1 = CN1/C(=C/C=C/C=C/C2=[N+](CCCCCC(=O)*)c3ccc4ccccc4c3C2(C)C)C(C)(C)c2c1ccc1ccccc21

Key:
[1] = test system: infarcted heart; parameters: species or system C57BL/6 mice; settings: mouse, in vivo
Description: ^Cy5.5TDCNfs, ^Cy5.5SAA1-7, and ^Cy5.5Ang1-7 were injected intravenously into the mice via tail vein at a dose of 0.2 mg. The images were captured at the prefixed time. Next, the mice were sacrificed to harvest their hearts and major organs. The samples were imaged at an excitation wavelength of 630 nm and an emission wavelength of 700 nm using an in vivo imaging system (FX PRO, BRUKER, Germany). The images were analyzed using the BRUKER Molecular Imaging Software. The targeting ability of compounds was defined by HTI = heart fluorescence emission/liver fluorescence emission.
Frozen sections were prepared in vivo, as described previously. For drugs distribution, near-infrared laser imager (GE Amersham Typhoon, Sweden) was used to capture full cross section of hearts. For co-localization experiments, the mice hearts were dissected 24 h post-injection of drugs. Anti-AT1R primary antibody (1:200 dilution) was used as the primary antibody. For fibrosis investigation, the frozen sections were incubated with primary antibodies against α-SMA (1:400 dilution). […]
manufacturer ’s protocol. […] The TUNEL positive cells were observed by the fluorescence microscope (λexc = 488 nm for TUNEL, λexc = 405 […]
(§1) Intracellular ROS was quantified with dihydroethidium (DHE). […] Intracellular ROS were detected by the fluorescence microscope (λexc = 532 nm for DHE, λexc = 405 nm for Hoechst 33342). […]

[2] = test system: MI mouse model; assay: Masson's trichrome staining, infarct size; format: in vivo, C57BL/6 mice; settings: MI mice, 4 weeks, collagen area/LV area, MI group 36.60%, vehicle 1219.84 μg/kg, n = 5
Description: (§2) Adult male C57BL/6 mice (20-30 g, 8-10 week) were purchased from the laboratory animal center of Southern Medical University, China. The protocols were approved according to the Zhujiang Hospital of Southern Medical University animal care and use committee guidelines, which conform to the guide for the care and use of laboratory animals published by the US National Institutes of Health (8th edition, 2011). […] Next, 100 µL of different drugs were administered intravenously through tail vein injection every 2 days for 3 weeks, while the mice in the Sham and MI groups were treated with an equal volume of PBS.
The mice were sacrificed at 4 weeks after the induction of MI, and hearts and major organs were harvested and fixed in 4% paraformaldehyde overnight and embedded in paraffin. The hearts were sectioned to 5 µm along the short axis transversely across the infarct zone. The major organs were sectioned to 5 µm along the short axis. Following deparaffinization and dehydration, the samples underwent H&E and Masson's trichrome staining. The sections were observed under a microscope to evaluate the therapeutic effect and safety of the drugs. The collagen and LV areas were measured using the Image-Pro Plus software (version 6.0; Media Cybernetics, Silver Spring, MD, USA). Infarct size (%) was calculated as the ratio of the collagen area to the LV area.

[3] = test system: MI mouse model; assay: Echocardiography post-MI; format: in vivo, C57BL/6 mice; settings: MI mice, 4th week, tail vein every 2 days (TDCNfs 1084.16, T+A 328.96+576, Tel 328.96, Ang1-7 576 μg/kg); MI group approx 16%; n = 5
Description: as §2
Twenty-eight days after surgery, the mice were anesthetized through the inhalation of isoflurane (1-1.5%) in O2 and echocardiographic examination was performed using a Vevo 2100 System equipped with a 30 MHz transducer (FUJIFILM Visual Sonics, Canada). The LVEDD, LVESD, LVEFs, and LVFS were measured. All measurements were repeated for at least three consecutive pulsation cycles and the data were averaged for statistical analysis. […]
(§3) manufacturer ’s protocol. Cells were then stained with DAPI. The TUNEL positive cells were observed by the fluorescence microscope (λexc = 488 nm for TUNEL, λexc = 405 […]
as §1

[4] = test system: p-AKT, Bax/Bcl-2, cleaved caspase-3; assay: Western blot of apoptosis-related proteins in OGD NRCMs; format: cell-based, rat; settings: vs OGD group, n = 3
Description: AKT, p-AKT, Bax, Bcl-2, cleaved caspase-3, P65, TGF-β1, Histone3, AT1R, GAPDH were quantified by western blot analysis. Protein concentration was determined using the bicinchoninic acid (BCA) method. SDS-PAGE was conducted to separate the proteins in each sample (30-50 µg of protein per lane), which were subsequently transferred to a PVDF membrane. The membranes were treated with blocking buffer for 2 h at room temperature and then incubated overnight with primary antibodies at 4 °C. The primary antibodies used included anti-Phospho-AKT (1:1000 dilution), anti-AKT (1:1000 dilution), anti-caspase-3 (1:1000 dilution), anti-Bcl-2 (1:100 dilution), anti-Bax (1:1000 dilution), anti-P65 (1:800 dilution), anti-TGF-β1 (1:1000 dilution), anti-Histone 3 (1:1000 dilution) and anti-AGTR1 (1:1000 dilution). The results were normalized by comparison to parallel western blots for glyceraldehyde 3-phosphate dehydrogenase (GAPDH, 1:8000 dilution). Optical density was measured using an image processing analysis program.

[5] = test system: NRCMs; assay: Intracellular ROS with DHE probe; format: cell-based, rat; settings: OGD NRCMs, 10 μM; OGD group 5.72-fold; n = 3
Description: The cells were counterstained with DAPI and were observed under a fluorescence microscope (details in Supporting Information). […]
as §3
Intracellular ROS was quantified with dihydroethidium (DHE). After incubated with different treatments under OGD condition, NRCMs were then cultured with DMEM medium containing […] of DHE for 30 min at 37 ℃ and then wash ed twice with PBS. Nucleuses of NRCMs were dyed by Hoechst 33342 stain solution for 30 min at 37 °C. Intracellular ROS were detected by the fluorescence microscope (λexc = 532 nm for DHE, λexc = 405 nm for Hoechst 33342).
Adult male C57BL/6 mice (20-30g, 8-10 weeks old) were purchased from the laboratory animal center of Southern Medical University. For the MI model, mice were subjected to permanent l eft anterior descending (LAD) ligation as described previously. In brief, the animals were anesthetized using 1.5% sodium pentobarbital (50 mg/kg) through intraperitoneal i njection, and mice were ventilated with a rodent ventilator subsequently. We exposed mice hearts by the fourth intercostal space incision and a subsequent pericardium removal. The LAD was ligated using an 8-0-prolene suture permanently to perform MI generation. […]

[6] = test system: NRCFs; assay: Conditioned medium interference experiments (TGF-β1 in CM, α-SMA in NRCFs); format: cell-based, rat; settings: NRCFs cultured 24 h with conditioned medium of pretreated OGD NRCMs, immunofluorescence, n = 3
Description: Next, the cells were blocked by incubating with goat serum for 30 min and incubated with primary antibodies overnight at 4 °C. The primary antibodies used here included anti-AT1R (1:200 dilution), anti-cTNT (1:500 dilution), anti-P65 (1:800 dilution), and anti‐α-SMA (1:400 dilution). The cells were incubated with FITC-labeled Goat Anti-Rabbit IgG (1:200 dilution) or Cy3-labeled Goat Anti-Mouse IgG (1:200 dilution) for 2 h at room temperature. The cells were counterstained with DAPI and imaged using a fluorescence microscope (Leica Dmi8, Germany).
CM from untreated or compound-treated cells were produced as follows. NRCMs were seeded in 35 mm culture dishes at 1 × 10^6 cells per well and incubated in growth medium containing different compounds or in media devoid of compounds for 12 h. Next, the media were replaced with serum-free medium, and the cells were cultured under hypoxia for 6 h. The CM was collected and centrifuged to culture NRCFs after a 12 h starvation period. Immunofluorescence of α-SMA was analyzed as per protocol after 24 h.
(§4) The serum and CM were collected at the indicated time points from the different groups of mice. The levels of TNF-α, IL-6, ALT, Cre, and TGF-β1 were measured using ELISA kits according to the manufacturer's protocol. The absorbance was measured at 450 nm using a microplate reader.

[7] = test system: NRCMs; assay: TUNEL staining of OGD NRCMs; format: cell-based, rat; settings: 10 μM, 2-3 h, OGD group 26.70%, n = 3
[8] = test system: MI mouse model; assay: In vivo mechanism: caspase-3 IHC, α-SMA immunofluorescence, type I collagen, TGF-β1, serum cytokines; parameters: species or system C57BL/6 mice; settings: MI mice, n = 5
Description: Frozen sections were prepared in vivo, as described previously. For drugs distribution, near-infrared laser imager (GE Amersham Typhoon, Sweden) was used to capture full cross section of hearts. For co-localization experiments, the mice hearts were dissected 24 h post-injection of drugs. Anti-AT1R primary antibody (1:200 dilution) was used as the primary antibody. For fibrosis investigation, the frozen sections were incubated with primary antibodies against α-SMA (1:400 dilution). The staining signals were visualized using FITC-labeled Goat Anti-Rabbit IgG (1:200 dilution) or Cy3-labeled Goat Anti-Rabbit IgG (1:200 dilution). The sections were counterstained with DAPI and examined under a laser confocal scanning microscope (Leica TCS SP8, Germany).
The heart tissues were fixed in 4% paraformaldehyde, dehydrated in ethanol, cleared in xylene, and embedded in paraffin. The samples were then cut into 6 μm sections on a microtome and deparaffinized. The sections were blocked by incubating with 1% BSA at room temperature for 30 min and then incubated overnight with anti-cleaved caspase-3 (1:700 dilution), anti-AT1R (1:100 dilution), anti-Collagen I (1:200 dilution) at 4 °C. Next, the sections were washed and incubated with secondary antibodies (1:500 dilution) at room temperature. The tissue sections were incubated with diaminobenzidine and counterstained with hematoxylin, dehydrated, and mounted before viewing under a microscope.
as §4

Row | Compound | overlapping signals with AT1R in infarct zone compared with Cy5.5TDCNfs group [1] | infarct size [2] | left ventricular ejection fractions (LVEFs) [3] | decrease of Bax/Bcl-2 value [4] | increase of p-AKT expression [4] | fluorescence intensity of superoxide anion (DHE) compared to the control group [5] | reduction of α-SMA levels in NRCFs compared to the OGD group [6] | TUNEL-positive NRCMs [7] | α-SMA expression in the non-infarcted area ([8]; 4 weeks post-treatment, immunofluorescence) | caspase-3 expression in infarct border zone ([8]; immunohistochemistry)
1 | CC[C@H](C)[C@H](NC(=O)[C@H](Cc1ccc(O)cc1)NC(=O)[C@@H](NC(=O)[C@H](CCCNC(=N)N)NC(=O)[C@H](CC(=O)O)NC(=O)CNC(=O)CCCCC[N+]1=C(/C=C/C=C/C=C2/N(C)c3ccc4ccccc4c3C2(C)C)C(C)(C)c2c1ccc1ccccc21)C(C)C)C(=O)N[C@@H](Cc1c[nH]cn1)C(=O)N1CCC[C@H]1C(=O)O [Cy5.5Ang1-7] (X1-GDRVYIHP-OH) | significantly lower | – | – | – | – | – | – | – | – | –
2 | CCCc1nc2c(C)cc(-c3nc4ccccc4n3C)cc2n1Cc1ccc(-c2ccccc2C(=O)O)cc1 [Tel, telmisartan] | – | 25.80% | 29.54% | 76.3% | more than 10 fold | 3.23 fold | 20.48% | 17.62% | inhibited to a certain extent | reduced moderately
